In patent US11814688B2, “Markers for determining tumor hypoxia” (VIB VZW, priority 2015, dated 2023):
One block for each molecule: values may come before it.

How the values were obtained:
[1] = system: MCF7 cells; test: LC/MS analysis of global 5hmC levels in MCF7 cells; format: cell-based, human; conditions: 24 hours
[2] = system: HIFs; test: HIF stabilization and hypoxia response program (Western blot, RT-qPCR) in MCF7 cells; format: cell-based, human; conditions: IOX2 50 μM
Method: Cell culture: Cells were cultured as described in the Supplemental Experimental Procedures. […] Where indicated, IOX2 (50 μM) or dimethyl α-ketoglutarate (2 mM) were added to fresh culture medium, using an equal volume of carrier (DMSO) as control for IOX2. Cells were plated at a density tailored to reach 80-95% confluence at the end of the treatment. Fresh medium was added to the cells just before the hypoxia exposure. For glutamine-free culture experiments, dialysed FBS was added to glutamine-free DMEM, and supplemented with glutamine (4 mM) for control. Extraction of DNA, RNA, proteins or metabolites was done 24 hours after the start of treatment, unless indicated otherwise. […]
RT-qPCR: For RNA extractions, cell culture medium was removed, TRIzol (Life Technologies) added and processed according to guidelines. […] Thermal cycling and fluorescence detection were done on a LightCycler 480 Real-Time PCR System (Roche), and differential expression calculated using the ΔΔCt method (Schmittgen and Livak, 2008). […]
TET mRNA concentrations and hypoxia marker gene induction: mRNA concentration analysis and statistics: Ct values were determined for each sample and gene of interest in technical duplicates, and normalized according to the corresponding amplification efficiency. […] Concentrations were expressed as averages of at least 5 independent biological replicates. […]

[3] = system: PHDs; conditions: cited from earlier work
[4] = biological target: recombinant purified Tet1 enzyme (Mus musculus, UniProt Q3URK3); test: DNA hydroxymethylation assay using purified TET enzyme at different O2 concentrations; conditions: conversion of 5mC to 5hmC on genomic DNA, 3 min reaction
Sequence of recombinant purified Tet1 enzyme (Q3URK3 1367-2039 limits assumed): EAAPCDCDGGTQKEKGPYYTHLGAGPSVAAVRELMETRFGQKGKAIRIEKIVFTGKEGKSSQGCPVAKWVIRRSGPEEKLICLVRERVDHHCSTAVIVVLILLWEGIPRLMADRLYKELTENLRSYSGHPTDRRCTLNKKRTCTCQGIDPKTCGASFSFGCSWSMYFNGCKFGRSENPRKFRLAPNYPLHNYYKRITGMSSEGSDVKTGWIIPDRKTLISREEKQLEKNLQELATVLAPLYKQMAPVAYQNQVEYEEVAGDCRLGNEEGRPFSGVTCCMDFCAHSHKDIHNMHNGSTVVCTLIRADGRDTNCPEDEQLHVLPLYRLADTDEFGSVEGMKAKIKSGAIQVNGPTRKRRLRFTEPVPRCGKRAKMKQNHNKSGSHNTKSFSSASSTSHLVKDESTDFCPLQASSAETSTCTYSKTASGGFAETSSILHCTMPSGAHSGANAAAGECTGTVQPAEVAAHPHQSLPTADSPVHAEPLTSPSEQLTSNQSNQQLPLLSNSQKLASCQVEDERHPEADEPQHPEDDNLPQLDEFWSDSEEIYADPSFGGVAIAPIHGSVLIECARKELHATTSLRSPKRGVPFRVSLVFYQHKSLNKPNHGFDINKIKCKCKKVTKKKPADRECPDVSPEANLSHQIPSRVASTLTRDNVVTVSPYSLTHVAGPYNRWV

[5] = system: breast tumors of MMTV-PyMT mice; test: sFlk1 overexpression by hydrodynamic plasmid injection in MMTV-PyMT mice; format: in vivo, mouse
Method: Murine cancer models: Animal experiments received local ethical approval (P098/2014). Animals were intercrossed and maintained as described in Supplemental Experimental Procedures. Mammary tumors were harvested at 16 weeks from Tg(MMTV-PyMT) and Tg(MMTV-PyMT); Phd2−/+ mice. For Flk1-overexpression studies, tumors allowed to develop for 11 weeks. Subsequently, 2.5 μg of plasmid (sFlk1-overexpressing or empty p156RRL2 vector) per gram of mouse body weight was introduced in the blood stream using hydrodynamic injections (Liu et al., 1999). sFlk1 overexpression was monitored at 4 days after injection and at sacrifice ([…]), by eye bleeds followed by an enzyme-linked immunosorbent assay for sFlk1 (R&D Systems, Abingdon, UK) in blood plasma. At 12 weeks of age, mice were sacrificed and mammary tumors harvested blinded for treatment. For the Phd2^+/− experiments, male Tg(MMTV-PyMT) FVB mice were intercrossed with female Phd2^−/+ mice, yielding litters of which half have either a Tg(MMTV-PyMT) genotype or a Tg(MMTV-PyMT); Phd2^−/+ genotype. For the Phd2^wt/fl experiments, male Tg(MMTV-PyMT) FVB mice were intercrossed with female Tie2-cre; Phd2^wt/fl mice as described (Kuchnio et al 2015), yielding litters of which half have either a Tie2-cre; Tg(MMTV-PyMT); Phd2^wt/wt genotype or a Tie2-cre; Tg(MMTV-PyMT); Phd2^−/+ genotype. At 16 weeks of age, female mice were sacrificed and mammary tumors harvested.
Targeted deep BS-seq: As no murine capture kit was available for targeted BSseq, a specific ampliconBS was developed for a set of 15 tumor suppressor gene promoters and 5 oncogene promoters. More specifically, DNA was bisulfite-converted using the Imprint DNA modification kit and amplified using the MegaMix Gold 2× mastermix and validated primer pairs. Per sample, PCR products were mixed to equimolar concentrations, converted into sequencing libraries using the NEBNext DNA library prep master mix set and sequenced to a depth of ˜500×. Mapping and quantification were done as described for SeqCapEpi. The average and variance of methylation level M values in normal mammary glands were used as baseline, and amplicons displaying over 3 standard deviations more methylation (FDR-adjusted P<0.05) than this baseline were called as hypermethylated. At least 9 different tumors, each from different animals, were profiled per genotype or treatment, and differences in HM frequencies between sets of tumors were assessed using Mann-Whitney's U-test.
Immunofluorescence staining: To mark hypoxic areas, mice were injected with pimonidazole (60 mg/kg, Hypoxyprobe, Massachusetts, USA) i.p. 1 hour before sacrifice. Tumors were harvested, fixed in formaldehyde and embedded in paraffin using standard procedures. Slides were deparafinated and rehydrated 2 xylene baths (5 minutes), followed by 5 times 3 minutes in EtOH baths at decreasing concentrations (100%, 96%, 70%, 50% and water) and a 3 minute Tris-buffered saline (TBS; 50 mM Tris, 150 mM NaCl, pH 7.6) bath. The following antibodies were used for immunofluorescence staining: primary antibodies were FITC-conjugated mouse anti-pimonidazole (HP2-100, Hydroxyprobe), rabbit anti-5hmC (39791, Active Motif), rat anti-polyoma middle T (AB15085, Abcam), rat anti-CD31 (557355, BD Biosciences), rat anti-CD45 (553076, BD Biosciences), rabbit anti-Ki67 (AB15580, Abcam) and mouse anti-pan cytokeratin (C2562, Sigma). […]

Molecule: O=C(O)CNC(=O)c1c(O)c2ccccc2n(Cc2ccccc2)c1=O [IOX2]
- changes in global 5hmC levels ([1]; IOX2 50 μM, carrier DMSO as control): no changes
- HIF stabilization and activation of the hypoxia response program [2]: sufficient to stabilize HIFs and activate the hypoxia response program
- specificity for PHDs over other αKG-dependent dioxygenases [3]: high specificity

- Km of Tet1 for oxygen [4]: ~0.3 % O2
Molecule: O=O [oxygen]

Molecule: COC(=O)CCC(=O)C(=O)OC [αKG, dimethyl α-ketoglutarate]
- changes in global 5hmC levels ([1]; dimethyl α-ketoglutarate 2 mM added to medium): Neither of these conditions however altered 5hmC levels

B1: sFlk1: soluble Flk1, VEGF inhibitor, overexpressed from a hydrodynamically injected plasmid (protein, UniProt P35918 20-762, looked up)
extracellular domain: ASVGLPGDFLHPPKLSTQKDILTILANTTLQITCRGQRDLDWLWPNAQRDSEERVLVTECGGGDSIFCKTLTIPRVVGNDTGAYKCSYRDVDIASTVYVYVRDYRSPFIASVSDQHGIVYITENKNKTVVIPCRGSISNLNVSLCARYPEKRFVPDGNRISWDSEIGFTLPSYMISYAGMVFCEAKINDETYQSIMYIVVVVGYRIYDVILSPPHEIELSAGEKLVLNCTARTELNVGLDFTWHSPPSKSHHKKIVNRDVKPFPGTVAKMFLSTLTIESVTKSDQGEYTCVASSGRMIKRNRTFVRVHTKPFIAFGSGMKSLVEATVGSQVRIPVKYLSYPAPDIKWYRNGRPIESNYTMIVGDELTIMEVTERDAGNYTVILTNPISMEKQSHMVSLVVNVPPQIGEKALISPMDSYQYGTMQTLTCTVYANPPLHHIQWYWQLEEACSYRPGQTSPYACKEWRHVEDFQGGNKIEVTKNQYALIEGKNKTVSTLVIQAANVSALYKCEAINKAGRGERVISFHVIRGPEITVQPAAQPTEQESVSLLCTADRNTFENLTWYKLGSQATSVHMGESLTPVCKNLDALWKLNGTMFSNSTNDILIVAFQNASLQDQGDYVCSAQDKKTKKRHCLVKQLIILERMAPMITGNLENQTTTIGETIEVTCPASGNPTPHITWFKDNETLVEDSGIVLRDGNRNLTIRRVRKEDGGLYTCQACNVLGCARAETLFIIEGAQEKTNLE
modifications: extracellular domain
- tumor hypoxia (hypoxic area) ([5]; after sFlk1 treatment, 20% in control): 47%
- TSGs hypermethylated relative to control in at least one out of 24 hypoxic tumors ([5]; deep BS-sequencing, panel of 15 TSG promoters): 10 out of 15
- hypermethylation of oncogene promoters ([5]; deep BS-sequencing, sFlk-treated tumors): failed to display the same increase
- increase in plasma sFlk1 concentrations ([5]; during 3 weeks after hydrodynamic injection of sFlk1-expressing plasmid, versus empty plasmid): > 11 fold
- reduction in vessel density ([5]; tumor vasculature, sFlk1-treated mice): 42±10%
